Data taken from patent US20150011483A1, “Inhibition of HIV-1 Infection by Potent Metallocene Conjugated Peptide Through Conformational Entrapment of Envelope GP120” (priority 2007, published 2015).
Read-outs that look alike come from different tables or passages of the source.

How the values were obtained:
[1] = tested on: HIV-1 strain BaL; assay: Combination of HNG-156 and cyanovirin-N against HIV-1 BaL infection of P4-CCR5 cells; type: cell-based; conditions: for IC50, viral infectivity inhibition: HIV-1 BaL, P4-CCR5 cells, combination at constant ratio 1:8.2 by weight, plotted against first-named component
Procedure: Dextran sulfate (DS) was used as a comparative. […] Combination Indexes (CIs) were calculated using the CalcuSyn software. […] CI values were calculated for 50, 75, and 90% HIV inhibition.

[2] = tested on: HIV-1 strain BaL; assay: Inhibition of HIV-1 BaL infection of P4-CCR5 cells (whole virus assay); type: cell-based
From the text: Infectivity remaining is expressed relative to mock-treated, HIV-1-infected cells.

[3] = tested on: P4-CCR5 cells; conditions: at concentrations corresponding to IC50 values; cited from earlier work
[4] = tested on: HIV-1 strain BaL; conditions: P4-CCR5 cells (Gopi et al., 2008); read-out: IC50, inhibition of infection by HIV-1 BaL; cited from earlier work
[5] = tested on: 17b; assay: SPR direct binding of peptide to immobilized 17b
[6] = target: T1, gp120 binding to sCD4 (Human immunodeficiency virus type 1 group M subtype B, UniProt P35961); parameters: species or system HIV-1; conditions: in the presence of HNG-156
T1 construct: made in house; host or cells: sCD4: CHO cells; gp120 (if YU2): Drosophila S2 cells

[7] = target: T2, gp120 binding to 2G12 (Human immunodeficiency virus type 1 group M subtype B, UniProt P35961); assay: Effect on gp120 binding to antibody 2G12; parameters: species or system HIV-1
T2 construct: with a constant concentration (100 nM) of YU2 gp120

[8] = target: T3, YU2 gp120 binding to 17b (Human immunodeficiency virus type 1 group M subtype B, UniProt P35961); assay: SPR competition: inhibition of YU2 gp120 binding to immobilized 17b; parameters: species or system HIV-1; conditions: 100 nM YU2 gp120, peptide 10 to 600 nM
T3 construct: made in house; host or cells: gp120: Drosophila S2 cells
From the text: (§1) In one experiment, antibodies b6, b12, or F105 were immobilized on a biosensor CM5 chip.

[9] = target: HIV-1 92UG037-08 gp120; assay: SPR direct binding to immobilized 92UG037-08 gp120; conditions: HIV-1 env 92UG037-08 (A)
[10] = target: T4, sCD4 (Homo sapiens, UniProt P01730); assay: SPR direct binding of peptide to immobilized sCD4
T4 construct: made in house; host or cells: CHO cells

[11] = target: T5, HIV-1 YU2 gp120 (Human immunodeficiency virus type 1 group M subtype B, UniProt P35961); assay: SPR direct binding to immobilized YU2 gp120
T5 construct: made in house; host or cells: Drosophila S2 cells
Procedure: All surface plasmon resonance experiments (SPR) were performed on a BIA3000 optical biosensor (Biocore, Inc., Uppsala, Sweden). […] For direct binding experiments, YU2 gp120 was immobilized on the surface (˜4000RU); peptide analytes in PBS buffer were passed over the surface at a flow rate of 50 μL/min. with 5 minute association phase and 5 minute dissociation phase. […] The indicated analytes were passed over the surfaces at a flow rate of 50 μL/minute, with 2.5 minute association phase and 2.5 minute dissociation phase.
Data analysis was performed using BIAEvaluation® 4.0 software (Biacore Inc., NJ). The responses of a buffer injection and responses from the control surface to which the mAb 2B6R was immobilized, were subtracted to account for nonspecific binding. Experimental data were fitted to a simple 1:1 Langmuir binding model with a parameter included for mass transport. The average kinetic parameters (association [ka] and dissociation [kd] rates) generated from a minimum of four datasets were used to define equilibrium association (KA) and dissociation constants (KD).

[12] = target: T6, YU2 gp120 binding to sCD4 (Human immunodeficiency virus type 1 group M subtype B, UniProt P35961); assay: SPR competition: inhibition of YU2 gp120 binding to immobilized sCD4; parameters: species or system HIV-1; conditions: 100 nM YU2 gp120, peptide 10 to 600 nM
T6 construct: made in house; host or cells: gp120: Drosophila S2 cells; sCD4: CHO cells
From the text: as §1

[13] = tested on: P4-CCR5 cells; assay: In vitro cytotoxicity, MTT assay; type: cell-based; conditions: concentrations as high as 0.1 mg/ml, 2 hours
Procedure: P4-CCR5 cells were seeded at a density of 4×10^4 cells/well in a 96 well plate approximately 18 hours prior to experiment. […] The cells were subsequently washed and assessed for viability using a 3-(4,5-dimethylthiazol-2-yl)-2,5-diphenyltetrazolium bromide (MTT) assay of viability (previously described in Krebs et al. (1999). Concentrations were tested in triplicate in two independent assays.

## dextran sulfate [DS]
[1]
  IC50, viral infectivity inhibition: 0.900 microgram/milliter
[2]; result of one trial
  IC50: 9800 nM
  IC50, inhibition of infection by HIV-1 BaL: 4.9 µg/mL

## RINNIPWSEAMM [HNG-124]
[3]
  impact on cell viability: no or minimal impact
[4]
  IC50: 418 nM

## CC[C@H](C)[C@H](NC(=O)[C@@H](N)CCCNC(=N)N)C(=O)N[C@@H](CC(N)=O)C(=O)N[C@@H](CC(N)=O)C(=O)N[C@H](C(=O)N1C[C@@H](n2cc([C]34[CH]5[CH]6[CH]7[CH]3[Fe]6754389%10[CH]4[CH]3[CH]8[CH]9[CH]4%10)nn2)C[C@H]1C(=O)N[C@@H](Cc1c[nH]c2ccccc12)C(=O)N[C@@H](CO)C(=O)N[C@@H](CCC(=O)O)C(=O)N[C@@H](C)C(=O)N[C@@H](CCSC)C(=O)N[C@@H](CCSC)C(N)=O)[C@@H](C)CC (some centres unmarked) [HNG-156]
[5]
  direct binding to 17b: no direct binding
[6]
  reduction of the affinity of CD4: reduced by two orders of magnitude
[1]
  IC50, viral infectivity inhibition: 0.213 microgram/milliter
[7]
  effect on the binding of 2G12: did not show any effect
[8]
  inhibition of binding of gp120 to 17b surface: complete inhibition
[9]
  Kd: 16.3 nM
  ka: 106000 M⁻¹ s⁻¹
[10]
  direct binding to sCD4: no direct binding
[11]; HIV-1 env YU2, Table 1
  kd: 0.000955 s⁻¹
[11]; YU2 gp120
  affinity higher than HNG-105's affinity: roughly 3 fold
[2]; HIV-1 BaL
  more effective than HNG-105 in inhibiting infection: approximately 15 fold
[12]
  inhibition of binding of gp120 to sCD4 surface: complete inhibition
[13]
  effect on P4-CCR5 cell viability: no effect

## RINNIPWSEAMM [HNG-113]
[3]
  impact on cell viability: no or minimal impact
[4]
  IC50: 156 nM

## CC[C@H](C)[C@H](NC(=O)[C@@H](N)CCCNC(=N)N)C(=O)N[C@@H](CC(N)=O)C(=O)N[C@@H](CC(N)=O)C(=O)N[C@H](C(=O)N1CCC[C@H]1C(=O)N[C@@H](Cc1c[nH]c2ccccc12)C(=O)N[C@@H](CO)C(=O)N[C@@H](CCC(=O)O)C(=O)N[C@@H](C)C(=O)N[C@@H](CCSC)C(=O)N[C@@H](CCSC)C(=O)O)[C@@H](C)CC [12p1, reference compound]
[4]
  IC50: 48000 nM

## RINNIPWSEAMM [HNG-137]
[3]
  impact on cell viability: no or minimal impact
[4]
  IC50: 610 nM

B1: Cyanovirin-N: 11 kD protein originally isolated from the cyanobacteria Nostoc ellipsosporum, binds gp120 (protein, listed as Nostoc ellipsosporum)
chain: LGKFSQTCYNSAIQGSVLTSTCERTNGGYNTSSIDLNSVIENVDGSLKWQPSNFIETCRNTQLAGSSELAAECKTRAQQFVSTKINLDDHIANIDGTLKYE
modifications: DISULFID (8)..(22) disulfide bond
[1]
  improvement in the efficacy of CV-N in viral inhibition upon addition of HNG-156: ~10 fold
  IC50, viral infectivity inhibition: 0.026 microgram/milliter
[1]; dose at which 50% neutralization occurs
  EC50 Dm: 0.045 µg/mL
